By IC50 is commonly meant the concentration at which inhibition is half-maximal. One may read the inhibition as how much of the control response was suppressed.

Data set [1] concerns the target T1, FLT3 (Homo sapiens, UniProt P36888).
T1 construct: purchased Invitrogen PV3182
T1 sequence (P36888 564-993 limits assumed): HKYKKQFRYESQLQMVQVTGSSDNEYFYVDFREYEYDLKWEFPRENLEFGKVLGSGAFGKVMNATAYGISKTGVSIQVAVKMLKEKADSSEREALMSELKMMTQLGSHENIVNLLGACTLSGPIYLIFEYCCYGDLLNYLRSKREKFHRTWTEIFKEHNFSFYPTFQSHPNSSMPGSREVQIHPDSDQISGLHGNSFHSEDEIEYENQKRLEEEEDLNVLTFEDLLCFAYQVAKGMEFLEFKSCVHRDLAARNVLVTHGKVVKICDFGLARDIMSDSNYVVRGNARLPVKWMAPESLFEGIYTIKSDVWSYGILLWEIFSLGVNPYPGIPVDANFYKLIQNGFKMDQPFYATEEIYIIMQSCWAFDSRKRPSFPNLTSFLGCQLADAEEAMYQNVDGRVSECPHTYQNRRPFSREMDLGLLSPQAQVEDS
Briefly: FLT3 kinase ADP Hunter Plus assay. It counts as biochemical. As to conditions: for FLT3 experimental hit classification: hit definition IC50 < 10µM. On the procedure:
Kinase activity was measured with the commercial ADP Hunter™ Plus assay (DiscoveRx Ref. #33-016), a homogeneous assay measuring ADP accumulation, as a universal product of kinase activity. The assay was conducted following the manufacturer’s recommendations and adapting the protein and substrate concentrations for optimal conditions. The kinase assay buffer was 15 mM HEPES, pH 7.4, 20 mM NaCl, 1 mM EGTA, 0.02% Tween-20, 10 mM MgCl2 and 0.1 mg/ml BGG (bovine γ-globulin). All PIM kinase assays were performed with 100 µM ABLtide ([…]) from GenScript as the peptide substrate and 100 µM ATP. Protein concentration (from Invitrogen, PV3182) was 0.4 ng/µl. To calculate the IC50 of the ETP-compounds, serial 1∶3 dilutions were prepared and the reaction was started with the addition of ATP. The reaction was incubated for 1 h at 37°C. Reagents A and B (DiscoveRx) were sequentially added to the wells, and the plates were incubated for 30 min at 25°C. Fluorescence counts were read in an EnVision 2104 Multilabel Reader (Perkin Elmer) with the recommended settings (544 and 580 nm as the excitation and emission wavelengths, respectively). Values were plotted against the inhibitor concentrations and fit to a sigmoid dose–response curve using ActivityBase software.

In data set [2] the target is B-RAF-V600E (Homo sapiens, UniProt P15056, V600E). Also on record: method as in PMID 21051136. As to conditions: 10 µM; average of two data points; cited from earlier work.
The target in data set [3] is T2, FAK (Homo sapiens, UniProt Q05397). Also on record: method as in PMID 21051136. The following applies: 10 µM; average of two data points; cited from earlier work.
T2 sequence (Q05397 whole entry, species assumed): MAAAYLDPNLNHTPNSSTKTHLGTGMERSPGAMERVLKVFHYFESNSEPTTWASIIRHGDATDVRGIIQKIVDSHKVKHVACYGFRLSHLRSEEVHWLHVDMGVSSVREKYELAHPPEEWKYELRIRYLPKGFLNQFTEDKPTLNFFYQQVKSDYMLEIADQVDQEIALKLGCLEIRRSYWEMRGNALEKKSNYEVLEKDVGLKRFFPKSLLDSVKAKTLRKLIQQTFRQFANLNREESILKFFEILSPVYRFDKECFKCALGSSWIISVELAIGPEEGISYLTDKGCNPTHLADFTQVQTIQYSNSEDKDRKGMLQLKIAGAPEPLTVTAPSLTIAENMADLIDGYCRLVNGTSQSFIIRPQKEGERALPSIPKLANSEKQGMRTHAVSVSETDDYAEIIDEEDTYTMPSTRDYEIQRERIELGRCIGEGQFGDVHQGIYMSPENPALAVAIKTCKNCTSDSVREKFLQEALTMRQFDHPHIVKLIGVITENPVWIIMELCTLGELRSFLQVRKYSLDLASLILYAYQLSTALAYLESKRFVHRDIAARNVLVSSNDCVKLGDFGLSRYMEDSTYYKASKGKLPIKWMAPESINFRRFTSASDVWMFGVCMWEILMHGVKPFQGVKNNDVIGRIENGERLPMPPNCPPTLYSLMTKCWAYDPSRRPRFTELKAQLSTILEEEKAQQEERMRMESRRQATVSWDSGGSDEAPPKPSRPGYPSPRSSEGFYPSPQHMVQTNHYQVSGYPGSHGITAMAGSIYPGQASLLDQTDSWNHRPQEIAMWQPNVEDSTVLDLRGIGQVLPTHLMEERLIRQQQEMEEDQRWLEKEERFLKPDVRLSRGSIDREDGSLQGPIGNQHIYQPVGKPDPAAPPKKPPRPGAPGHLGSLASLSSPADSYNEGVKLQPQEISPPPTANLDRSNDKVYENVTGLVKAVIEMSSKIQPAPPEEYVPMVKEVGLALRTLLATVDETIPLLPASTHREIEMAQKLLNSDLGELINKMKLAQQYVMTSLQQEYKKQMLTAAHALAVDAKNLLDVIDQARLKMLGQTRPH
Data set [4] has as its target PIM-3 (Homo sapiens, UniProt Q86V86). Briefly: PIM-3 kinase ADP Hunter Plus assay. It counts as biochemical. The following applies: 100 µM ATP. On the procedure:
Kinase activity was measured with the commercial ADP Hunter™ Plus assay (DiscoveRx Ref. #33-016), a homogeneous assay measuring ADP accumulation, as a universal product of kinase activity. The assay was conducted following the manufacturer’s recommendations and adapting the protein and substrate concentrations for optimal conditions. The kinase assay buffer was 15 mM HEPES, pH 7.4, 20 mM NaCl, 1 mM EGTA, 0.02% Tween-20, 10 mM MgCl2 and 0.1 mg/ml BGG (bovine γ-globulin). All PIM kinase assays were performed with 100 µM PIMtide ([…]) as the peptide substrate and 100 µM ATP. The protein concentrations were 50, 350 and 500 ng/µl for PIM-1, 2 and 3, respectively. To calculate the IC50 of the ETP-compounds, serial 1∶5 dilutions were prepared and the reaction was started with the addition of ATP. The reaction was incubated for 1 h at 25°C. Reagents A and B (DiscoveRx) were sequentially added to the wells, and the plates were incubated for 30 min at 37°C. Fluorescence counts were read in a Victor instrument (Perkin Elmer) with the recommended settings (544 and 580 nm as the excitation and emission wavelengths, respectively). Values were plotted against the inhibitor concentrations and fit to a sigmoid dose–response curve using GraphPad software.

In data set [5] the target is IKK-β (Homo sapiens, UniProt O14920). The data set is described as follows: ProQinase kinase panel, % inhibition at fixed concentration. The class given is biochemical. As to conditions: average of two data points, read-out: IKK-β percentage of inhibition. The protocol: (§1) Off-target selectivity profiling was also performed for compounds 3 and 8 against a panel of 20 kinases (Table 3). […] When taking the differences in screening concentrations into consideration, we can only make unequivocal conclusions about FLT3 (based on the IC50 determination). […] The slight improvement observed for the remainder of the screened targets was likely due to the difference in concentrations.
Chain of IKK-β (O14920 whole entry, species assumed): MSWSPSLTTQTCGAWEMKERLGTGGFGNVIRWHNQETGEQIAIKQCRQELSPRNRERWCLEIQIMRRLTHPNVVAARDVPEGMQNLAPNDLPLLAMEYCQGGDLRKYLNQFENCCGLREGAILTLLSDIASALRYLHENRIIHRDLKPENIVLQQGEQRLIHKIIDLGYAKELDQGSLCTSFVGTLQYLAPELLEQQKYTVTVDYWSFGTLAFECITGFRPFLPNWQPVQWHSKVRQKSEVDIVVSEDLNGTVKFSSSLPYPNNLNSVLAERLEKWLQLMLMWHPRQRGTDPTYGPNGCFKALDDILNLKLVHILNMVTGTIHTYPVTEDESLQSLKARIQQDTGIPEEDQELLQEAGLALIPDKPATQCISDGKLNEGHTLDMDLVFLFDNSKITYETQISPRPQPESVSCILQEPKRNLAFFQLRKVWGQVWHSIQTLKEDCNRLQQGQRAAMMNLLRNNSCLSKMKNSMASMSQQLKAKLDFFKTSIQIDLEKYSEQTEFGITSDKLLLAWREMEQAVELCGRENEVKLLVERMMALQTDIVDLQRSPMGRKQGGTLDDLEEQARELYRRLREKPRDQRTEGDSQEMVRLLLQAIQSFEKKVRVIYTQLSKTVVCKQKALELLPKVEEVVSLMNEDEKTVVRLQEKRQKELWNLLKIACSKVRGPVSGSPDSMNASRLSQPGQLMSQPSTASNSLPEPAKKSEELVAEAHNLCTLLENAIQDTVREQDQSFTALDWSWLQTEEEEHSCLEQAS

For data set [6], the target named is MEK1 (Homo sapiens, UniProt Q02750). Described as above. The class given is biochemical. As to conditions: read-out: MEK1 percentage of inhibition. The protocol:
as §1

Data set [7] in a line: Metabolic stability in liver microsomes (Human). The following applies: for Met. Stab. (Human), percentage of the original compound that remained: 1 µM, liver microsomes, 15 minutes. It counts as in vitro ADME. For orientation: Liver microsomes are vesicles of endoplasmic reticulum, rich in cytochrome P450 enzymes.
Data set [8] is described as follows: Metabolic stability in liver microsomes (Mouse). It counts as in vitro ADME. As to conditions: 1 µM, 15 minutes.
A short description of data set [9]: Metabolic stability in liver microsomes (Rat). It counts as in vitro ADME. The following applies: 1 µM, 15 minutes.
A short description of data set [10]: PAMPA passive diffusion. It counts as in vitro ADME. As to conditions: LC/MS/MS after 4 hours of incubation at 2 µM; for Papp at 4 h, 2 µM: PAMPA, read-out: PAMPA Pe. On the procedure:
Therefore, to obtain more detailed information on this critical point, preliminary in vitro ADME profiling was performed for molecule 3. This profiling was mainly focused on hERG activity and on pharmacokinetics parameters, such as metabolic stability and PAMPA (an in vitro model for passive diffusion).
(In general: In PAMPA a lipid-coated filter parts donor from acceptor wells.)

In data set [11] the target is PIM-2 (Homo sapiens, UniProt Q9P1W9). The data set is described as follows: PIM-2 kinase ADP Hunter Plus assay. It counts as biochemical. As to conditions: 100 µM ATP.
Chain of PIM-2 (Q9P1W9 whole entry, the tested form may be a part): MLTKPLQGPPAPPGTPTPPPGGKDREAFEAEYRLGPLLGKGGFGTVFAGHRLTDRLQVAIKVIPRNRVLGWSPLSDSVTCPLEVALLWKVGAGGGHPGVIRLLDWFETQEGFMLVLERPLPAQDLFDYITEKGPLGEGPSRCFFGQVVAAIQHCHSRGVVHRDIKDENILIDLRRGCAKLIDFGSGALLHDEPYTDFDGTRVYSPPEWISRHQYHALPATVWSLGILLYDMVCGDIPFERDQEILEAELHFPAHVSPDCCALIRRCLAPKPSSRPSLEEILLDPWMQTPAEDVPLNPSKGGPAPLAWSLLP
The target of data set [12] is INS-R (Homo sapiens, UniProt P06213). The data set is described as follows: ProQinase kinase panel, % inhibition at fixed concentration. It counts as biochemical. The protocol: (§2) Once compounds 7 and 8 were synthesized, a pairwise comparison was performed to strictly evaluate the real impact of this fragment-hopping where imidazopyridazine is replaced by triazolopyridine.
Chain of INS-R (P06213 980-1382 limits assumed, species assumed): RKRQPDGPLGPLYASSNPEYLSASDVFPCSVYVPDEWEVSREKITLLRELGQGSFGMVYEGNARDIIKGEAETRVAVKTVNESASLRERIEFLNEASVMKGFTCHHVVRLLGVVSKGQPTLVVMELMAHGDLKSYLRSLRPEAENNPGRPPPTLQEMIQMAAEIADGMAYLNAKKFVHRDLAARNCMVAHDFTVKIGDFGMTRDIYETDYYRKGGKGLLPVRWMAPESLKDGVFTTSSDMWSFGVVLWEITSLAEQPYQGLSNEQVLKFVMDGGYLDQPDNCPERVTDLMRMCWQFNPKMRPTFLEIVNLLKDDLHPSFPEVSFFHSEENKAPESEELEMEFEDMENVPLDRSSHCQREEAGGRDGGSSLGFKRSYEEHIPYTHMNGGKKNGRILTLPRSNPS

Data set [13] concerns the target JNK1 (Homo sapiens, UniProt P45983). The data set is described as above. It counts as biochemical. The protocol:
as §2

Data set [14] addresses T2, FAK. The description is as above. It counts as biochemical.
In data set [15] the target is KIT (Homo sapiens, UniProt P10721). Described as above. The class given is biochemical.
Chain of KIT (P10721 26-976, species assumed): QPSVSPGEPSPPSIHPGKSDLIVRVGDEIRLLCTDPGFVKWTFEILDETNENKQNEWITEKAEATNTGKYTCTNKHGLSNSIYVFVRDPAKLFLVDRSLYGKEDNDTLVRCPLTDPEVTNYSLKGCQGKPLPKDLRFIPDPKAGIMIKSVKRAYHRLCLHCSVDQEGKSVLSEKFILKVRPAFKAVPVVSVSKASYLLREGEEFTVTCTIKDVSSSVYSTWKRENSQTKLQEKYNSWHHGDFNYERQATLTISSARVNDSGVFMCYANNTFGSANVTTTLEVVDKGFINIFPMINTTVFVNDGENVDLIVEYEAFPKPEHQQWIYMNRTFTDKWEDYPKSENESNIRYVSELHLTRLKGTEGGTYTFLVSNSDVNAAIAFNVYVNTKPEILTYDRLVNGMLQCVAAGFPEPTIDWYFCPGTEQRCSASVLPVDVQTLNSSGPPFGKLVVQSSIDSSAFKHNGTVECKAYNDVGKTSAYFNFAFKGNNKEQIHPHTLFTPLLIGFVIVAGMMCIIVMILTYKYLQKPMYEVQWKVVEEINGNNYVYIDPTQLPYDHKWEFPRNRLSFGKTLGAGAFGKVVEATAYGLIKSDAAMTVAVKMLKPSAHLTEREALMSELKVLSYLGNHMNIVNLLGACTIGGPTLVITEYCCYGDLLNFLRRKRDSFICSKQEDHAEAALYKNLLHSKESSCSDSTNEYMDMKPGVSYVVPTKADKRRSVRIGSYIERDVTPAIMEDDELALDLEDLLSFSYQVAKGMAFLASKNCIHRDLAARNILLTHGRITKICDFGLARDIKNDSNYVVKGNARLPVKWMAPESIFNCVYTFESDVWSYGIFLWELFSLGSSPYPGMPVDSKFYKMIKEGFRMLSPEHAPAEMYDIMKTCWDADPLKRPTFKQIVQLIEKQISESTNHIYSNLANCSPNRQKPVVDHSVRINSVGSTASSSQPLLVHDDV
[16] abbreviates: ADP Hunter Plus, 100 µM ATP, read-out: FLT-3 IC50.
[17] abbreviates: compound 7 vs compound 1, 10 µM.
The mark [18] stands for this setting: hit definition % inhibition > 40, ligand at 5µM.

Read-outs that look alike come from different tables or passages of the source.

Chain of MEK1 (Q02750 whole entry, species assumed): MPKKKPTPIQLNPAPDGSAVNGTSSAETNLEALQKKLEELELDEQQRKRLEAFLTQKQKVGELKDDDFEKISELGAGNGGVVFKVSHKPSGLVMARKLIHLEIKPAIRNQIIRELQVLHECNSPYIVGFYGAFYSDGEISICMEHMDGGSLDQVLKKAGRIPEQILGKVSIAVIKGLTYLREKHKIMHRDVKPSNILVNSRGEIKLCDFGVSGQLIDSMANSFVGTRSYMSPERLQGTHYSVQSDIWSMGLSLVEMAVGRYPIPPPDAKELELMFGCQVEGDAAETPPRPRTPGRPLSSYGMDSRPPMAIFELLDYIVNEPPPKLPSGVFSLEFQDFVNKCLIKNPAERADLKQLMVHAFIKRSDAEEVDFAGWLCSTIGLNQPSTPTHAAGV
Chain of JNK1 (P45983 whole entry, species assumed): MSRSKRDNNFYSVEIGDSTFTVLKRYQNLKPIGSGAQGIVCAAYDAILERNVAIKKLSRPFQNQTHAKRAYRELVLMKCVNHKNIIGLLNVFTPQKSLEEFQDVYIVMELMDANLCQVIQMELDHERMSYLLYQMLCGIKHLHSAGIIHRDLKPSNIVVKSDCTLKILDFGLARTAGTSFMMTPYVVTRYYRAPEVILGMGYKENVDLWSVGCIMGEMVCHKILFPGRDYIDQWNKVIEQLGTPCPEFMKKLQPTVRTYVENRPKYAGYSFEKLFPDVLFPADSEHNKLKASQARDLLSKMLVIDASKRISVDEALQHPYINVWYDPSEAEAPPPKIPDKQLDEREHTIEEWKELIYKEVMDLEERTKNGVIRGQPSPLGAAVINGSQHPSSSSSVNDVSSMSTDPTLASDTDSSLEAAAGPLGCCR

For the compound `Oc1ccc(-c2cnc3ccc(NCc4ccc(F)cc4)nn23)cc1` [Compound 1], in [1] (setting [16]), the IC50 was 1 nM. Moreover, the “B-RAF-V600E percentage of inhibition” value in [2] is on record as 54%. In addition, in data set [3], the “FAK percentage of inhibition” value is on record as 48%.
With `CN1CCC(CNc2ccc3ncc(-c4cccc(OC(F)(F)F)c4)n3n2)CC1` [Compound 3, reference compound], the IC50 in [4] turned out to be 46 nM; in data set [1], 5 nM. Moreover, the inhibition at 10 µM in data set [5] (inhibitor at 10 µM) came out at 0%; in data set [6], 11%. For the same compound, in data set [7], the “Met. Stab. (Human), percentage of the original compound that remained” value came out at 31%. Also, the “Met. Stab. (Mouse), percentage of the original compound that remained” value in [8] came to 5%. In addition, the “Met. Stab. (Rat), percentage of the original compound that remained” value in data set [9] is 23%. For the same compound, the Papp at 4 h, 2 µM in data set [10] is 0.0015 ×10⁻⁶ cm/s.
In the case of `Oc1ccc(-n2nnc3ccc(NCc4ccc(F)cc4)nc32)cc1` [Compound 7, 4-[5-(4-Fluoro-benzylamino)-[1], [2], [3]triazolo[4,5-b]pyridin-3-yl]-phenol], the IC50 in data set [11] is 333 nM; in data set [4], 51 nM; in data set [1] (setting [16]) it was 1840 nM. Further, the “FLT3 experimental hit classification” value in data set [1] is “hit”. Moreover, in data set [12] (setting [17]), the “INS-R improvement in percentage of inhibition” value is listed as “b (This designation indicates that the improvement in percentage of inhibition was equal or greater than 25%)”. For the same compound, the inhibition at 10 µM in [12] (inhibitor at 10 µM, average of two data points, read-out: INS-R percentage of inhibition) is 32%; in [13] (inhibitor at 10 µM, average of two data points, read-out: JNK1 percentage of inhibition), 11%; in [14] (inhibitor at 10 µM, average of two data points, read-out: FAK percentage of inhibition) it was 38%; in [15] (inhibitor at 10 µM, average of two data points, read-out: KIT percentage of inhibition) it was 51%. In data set [13] (setting [17]), the “JNK1 improvement in percentage of inhibition” value is “c (This designation indicates that the improvement in percentage of inhibition was equal or greater than 50%)”. For the same compound, the “KIT improvement in percentage of inhibition” value in data set [15] (setting [17]) is “b (This designation indicates that the improvement in percentage of inhibition was equal or greater than 25%)”. For the same compound, the “KIT experimental hit classification” value in data set [15] (hit definition % inhibition > 50, ligand at 10µM) is recorded as “hit”.
As for `CN1CCC(CNc2ccc3nnn(-c4cccc(OC(F)(F)F)c4)c3n2)CC1` [Compound 8, (1-Methyl-piperidin-4-ylmethyl)-[3-(3-trifluoromethoxy-phenyl)-3H-[1], [2], [3]triazolo[4,5-b]pyridin-5-yl]-amine], the IC50 worked out at 4950 nM in [11], 724 nM in data set [4] and 1320 nM in data set [1] (setting [16]). Besides, the “FLT3 experimental hit classification” value in [1] was “hit”. Further, in [14] (setting [18]), the “FAK experimental hit classification” value is given as “not a FAK hit”. Further, the inhibition at 5 µM came out at 34% in [14] (inhibitor at 5 µM, average of two data points, read-out: FAK percentage of inhibition); 44% in data set [15] (inhibitor at 5 µM, average of two data points, read-out: KIT percentage of inhibition); 3% in data set [5] (inhibitor at 5 µM); 33% in [6] (inhibitor at 5 µM, average of two data points). The “KIT increment in percentage of inhibition” value in [15] (compound 8 (5 µM) versus compound 3 (10 µM)) is reported as greater than 50%. Also, the “KIT improvement in percentage of inhibition” value in data set [15] (compound 8 (5 µM) vs compound 3 (10 µM)) was “c (This designation indicates that the improvement in percentage of inhibition was greater than 50%)”. The “KIT experimental hit classification” value in data set [15] (setting [18]) is on record as “hit”. Further, in data set [7], the “Met. Stab. (Human), percentage of the original compound that remained” value was 77%. Moreover, the “increase in metabolic stability in human liver microsomes” value in data set [7] (molecule 8 vs compound 3) is “more than 45%”. For the same compound, in data set [8], the “Met. Stab. (Mouse), percentage of the original compound that remained” value worked out at 27%. Moreover, in [9], the “Met. Stab. (Rat), percentage of the original compound that remained” value is recorded as 35%. In [10], the “PAMPA Pe” value was 0.74 10^-6 cm/s. In [10], the Papp at 4 h, 2 µM was roughly 1 ×10⁻⁶ cm/s.

Source of the values: article PMC3480357, “Fragment-Hopping-Based Discovery of a Novel Chemical Series of Proto-Oncogene PIM-1 Kinase Inhibitors” (PLoS ONE, 2012).
